Values quoted from earlier work as cited in patent publication US20060223182A1, “Device for producing autologous VEGF” (priority 2005, published 2006).
Read-outs that look alike come from different tables or passages of the source.

Legend:
[1] = tested on: human macrophages; conditions: 0.5 mM H2O2 for about 30 minutes
[2] = tested on: human keratinocytes; conditions: baseline about 200 pg/ml
[3] = tested on: human keratinocytes; conditions: human keratinocytes cultured in H2O2, with cycloheximide
[4] = tested on: VSMCs

OO [H2O2, hydrogen peroxide]
VEGF produced per cell [1]: about 2.5 fg VEGF/cell
VEGF production level ([2]; H2O2 250 uM): about 600 pg/ml

C[C@@H]1C[C@@H]([C@H](O)CC2CC(=O)NC(=O)C2)C(=O)[C@@H](C)C1 [cycloheximide]
level of mRNA produced by the superinduction relative to mere addition of H2O2 [3]: at least 10 fold

TGF-β: growth factor, obtainable from platelet releasate
increase in steady state levels of VEGF mRNA ([4]; 0.3 ng/ml TGF-β, 4 hours, 21% O2, printed as 'similar increase' to 2.5% O2 alone): 1.5-2 fold
increase in the level of VEGF mRNA ([4]; combined treatment of TGF-β and incubation at 2.5% O2): ~7 fold

TNF-α
VEGF production level ([2]; TNF-α 25 ng/ml): about 600 pg/ml
